Test results taken from patent publication US12509430B2, “Inhibitors of nicotinamide N-methyltransferase, compositions and uses thereof” (President and Fellows of Harvard College, priority 2020, dated 2025).

Legend:
[1] = biological target: T1, recombinant human NNMT (Homo sapiens, UniProt P40261); assay: in vitro NNMT enzyme inhibition assay (Promega MTase-Glo Methyltransferase Assay); format: biochemical; details: read-out: in vitro hNNMT IC50
T1 sequence (P40261 1-264): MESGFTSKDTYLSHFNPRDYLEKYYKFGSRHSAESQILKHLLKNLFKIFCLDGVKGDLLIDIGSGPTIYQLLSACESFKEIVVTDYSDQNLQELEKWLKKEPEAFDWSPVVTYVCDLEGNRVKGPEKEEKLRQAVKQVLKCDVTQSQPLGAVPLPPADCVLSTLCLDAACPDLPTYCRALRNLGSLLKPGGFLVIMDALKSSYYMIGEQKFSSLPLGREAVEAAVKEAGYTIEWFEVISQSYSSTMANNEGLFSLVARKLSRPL
Protocol: NNMT biochemical activity for was evaluated using the Promega Mtase-Glo Methyltransferase Assay kit. Assays were performed in a white, flat-bottomed 96 well plate. […] Reactions were performed for 20 minutes at room temperature. MTase-Glo reagent and MTase-Glo detection solution were added according to manufacturer's instructions and luminescence signal measured with a SpectraMax i3 plate reader and data analyzed with GraphPad Prism version 8. FIG. 14 depicts a visual summary of the Promega MTase-Glo Methyltransferase assay used to assess biochemical activity of novel inhibitors.

[2] = test system: U2OS; assay: Cellular Activity IC50 (U2OS); format: cell-based; details: Homo sapiens
[3] = test system: 3T3L-1; assay: Cellular Activity IC50 (3T3L-1); format: cell-based; details: Mus musculus, 3T3-L1
[4] = Microsomal stability, human microsomes with NADPH (Phase I); format: in vitro ADME; details: human liver microsomes
Protocol: (§1) The metabolism of Compounds 4 and 13 was evaluated using a microsomal stability assay. Briefly, a master solution was prepared according to Tables 5 and 6.
(§2) The final concentrations of NADPH was 1 mM. […] Samples with NADPH were prepared in duplicate. Negative controls were prepared in singlet.
(§3) Verapamil was used as positive control in this study. The final concentration of test compound or control compound was 2 μM.
(§4) Aliquots of 50 μL were taken from the reaction solution at 0, 15, 30, 45 and 60 minutes.

[5] = Microsomal stability, mouse microsomes with NADPH (Phase I); format: in vitro ADME; details: mouse liver microsomes
Protocol: as §1, §2, §3, §4

[6] = test system: 1-Methylnicotinamide (1-MNA); assay: In vivo pharmacodynamics, plasma 1-MNA in female C57B16/N mice after inhibitor dosing; parameters: species or system mouse; details: plasma 1-MNA after inhibitor PO 50 mg/kg
Protocol: 1-Methylnicotinamide (1-MNA) concentrations were also determined.
Then the samples were vortexed for 30 s.

[7] = In vivo pharmacokinetics, plasma concentration of inhibitor in female C57B16/N mice; details: plasma
Description: Doses were freshly prepared on the day of dosing.

[8] = read-out: Predicted hepatic Clint
[9] = female, C57B16/N, mouse, po, 50 mg/kg

COc1ccc(C(N)=O)cn1 [JBSNF-000088]
IC50 [1]: 2400 nM
IC50 [2]: 1600 nM
IC50 [3]: 6300 nM

CNc1ccc(C(N)=O)cn1 [JBSNF-000265, reference compound]
IC50 [2]: 300 nM
IC50 [3]: 2100 nM
microsomal CLint at 2 μM [4]: ~6.84 µL/min/mg
half-life at 2 μM ([4]; 2 μM): ~3.38 h
Remaining (%) at 60 min ([4]; 60 min): 81.72%
CLhep predicted at 2 μM [4, 8]: ~6.06 mL/min/kg
CLint scaled at 2 μM ([4]; read-out: Scaled-up CLint): ~8.57 mL/min/kg
microsomal CLint at 2 μM [5]: ~4.94 µL/min/mg
half-life at 2 μM ([5]; 2 μM): ~4.67 h
Remaining (%) at 60 min ([5]; 60 min): 84.73%
CLhep predicted at 2 μM [5, 8]: ~17.4 mL/min/kg
CLint scaled at 2 μM ([5]; read-out: Scaled-up CLint): ~21.6 mL/min/kg
AUClast of 1-MNA [6]: 799 ng·h/mL
Cmax of 1-MNA [6]: 39.3 ng/mL
Tmax of 1-MNA [6]: 6.7 h
AUC_%Extrap_obs ([7]; PO 50 mg/kg, female C57B16/N mice): 0.0313%
AUC(0-inf) [7, 9]: 15500 ng·h/mL
AUC(0-t) [7, 9]: 15400 ng·h/mL
Cmax [7, 9]: 20900 ng/mL
MRT inf [7, 9]: 0.57 h
Tmax [7, 9]: 0.333 h
half-life [7, 9]: 1.06 h

CNc1cc(C)c(C(N)=O)cn1 [JBSNF-000581, reference compound]
IC50 [1]: 840 nM
